By IC50 is commonly meant the point on the concentration scale where inhibition reaches its midpoint. The EC50 is the midpoint of the concentration-response curve.

Drawing on patent US9593149B2, “Amylin and calcitonin receptor agonist” (Novo Nordisk A/S, priority 2014, dated 2017), this text covers IC50 and EC50 for five molecules.

The target in assay [1] is T1, human amylin receptor (human calcitonin receptor + human RAMP3), BHK tk'ts 13 cells (Homo sapiens, UniProt O60896+P30988).
T1 construct: expressed in transfected cells; host or cells: BHK tk'ts 13
Put plainly: Assay (Va) binding to the human amylin receptor (whole cell). The conditions noted are these: read-out: hAmylin-R binding IC50. How it is done: The day before the assay the cells were Seeded into Poly-D-Lysin coated 384W Opaque White, BD BioCoat plates (10000 cells/well) and Incubated overnight at 37° C., 5% CO2, 95% humidity.

In assay [2] the target is T2, human amylin 3(a) receptor (human calcitonin receptor + RAMP-3), BHK570 cells (Homo sapiens, UniProt O60896+P30988).
T2 construct: host or cells: BHK570
The assay is described as follows: Assay (II)b functional CRE-luciferase assay without albumin, human amylin receptor. Type of assay: cell-based. Particulars: Tested without HSA; read-out: hAmylin-R funct. EC50. From the text: (§1) Assay(II)b—Human Calcitonin and Amylin Receptor Assay without Albumin
(§2) 1. Luciferase Assay Outline
(§3) Activation of calcitonin and amylin (co-expression of calcitonin receptor and receptor activity modifying proteins (RAMP)) receptors lead to increased intracellular concentrations of cAMP. Consequently, transcription is activated by promoters containing multiple copies of the cAMP response element (CRE). It is thus possible to measure amylin activity by the use of a CRE luciferase reporter gene introduced into BHK cells also expressing calcitonin or amylin receptors.
(§4) 2. Construction of Calcitonin (a)—and Amylin 3(a)—Receptor/CRE-Luc Cell Line.
(§5) A BHK570 cell line was stably transfected with the human calcitonin receptor and a CRE-responsive luciferase reporter gene (Hollex-1 cell line, obtained from ZymoGenetics described in U.S. Pat. No. 5,622,839). The cell line was further transfected with RAMP-3, using standard methods. This turns the calcitonin receptor into an amylin 3(a) receptor. Methotrexate, Neomycin, and Hygromycin are selection markers for luciferase, the calcitonin receptor, and RAMP-3, respectively. To prepare the batches of frozen cells used in the luciferase assay described in the section below, the cells were cultured in growth medium (DMEM with 10% FBS, 1% Pen/Strep and 1 mM Napyruvate). […] Cells at approximately 80-90% confluence were washed with PBS and loosened from the plates with Versene. After centrifugation (2 min, 1300 rpm, in a Centrion Scientific centriuge C2 series with a BRK 5510 rotor head), the cell pellet was dissolved in 10% DMSO, 30% FBS and 60% growth medium and frozen (−80° C.) until utilization.
(§6) The day before the experiment, BHK calcitonin (a) receptor- or amylin 3(a)-receptor/CRE-luc cells were thawed, washed twice, and seeded in 40 μl growth medium on white 384 well culture plates (4.000 cells/well). On the assay day, the cells were washed 3 times in assay media (Dulbecco media W/o phenol red, 500 ml (Gibco, 11880-028); 0.1% ovalbumin; 10 mM Hepes pH 7.4; 1× Glutamin; 1% Pen/Strep). Then, 30 μl/well of sample diluted in assay buffer was added. After 3 hours of incubation at 37° C. and 5% CO2, the reaction was terminated by adding 30 μl/well SteadyLite Plus™. The plates were shaken at 300 rpm for 5 min at RT. Then, the plates were sealed and incubated at room temperature for 30 minutes. Finally, luminescence was tested on a TopCounter (Packard) in SPC (single photon counting) mode.
(§7) Additional Comment Regarding Use of Data Retrieved Via this Method
(§8) For the same reasons, measurements made in Assay IIa should not be compared in Assay IIb.

Assay [3] has as its target T3, human calcitonin (a) receptor, BHK570 cells (Homo sapiens, UniProt P30988).
T3 construct: host or cells: BHK570
T3 sequence (P30988 25-474): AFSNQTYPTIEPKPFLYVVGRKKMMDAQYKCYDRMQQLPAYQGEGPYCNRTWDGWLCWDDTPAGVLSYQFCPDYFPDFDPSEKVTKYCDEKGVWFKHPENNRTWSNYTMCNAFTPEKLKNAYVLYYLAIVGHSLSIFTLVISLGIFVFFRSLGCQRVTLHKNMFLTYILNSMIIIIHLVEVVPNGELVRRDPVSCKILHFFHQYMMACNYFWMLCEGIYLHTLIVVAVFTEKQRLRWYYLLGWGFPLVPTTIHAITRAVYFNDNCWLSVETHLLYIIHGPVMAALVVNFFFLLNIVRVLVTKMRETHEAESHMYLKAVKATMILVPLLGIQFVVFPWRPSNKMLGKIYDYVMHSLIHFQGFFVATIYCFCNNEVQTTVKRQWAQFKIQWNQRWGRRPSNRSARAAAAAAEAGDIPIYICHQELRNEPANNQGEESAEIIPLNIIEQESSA
Put plainly: Assay (II)b functional CRE-luciferase assay without albumin, human calcitonin receptor. It counts as cell-based. Particulars: Tested without HSA; read-out: hCTR funct. EC50.
Text: as §1, §2, §3, §4, §5, §6, §7, §8

Peptide text beside a SMILES is read from it.

T1 sequence (O60896 24-148, one chain of several): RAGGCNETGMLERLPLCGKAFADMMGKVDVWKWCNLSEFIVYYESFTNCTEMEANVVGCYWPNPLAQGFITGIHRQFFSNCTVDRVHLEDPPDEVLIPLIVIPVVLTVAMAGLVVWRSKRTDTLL
T2 sequence (O60896 24-148, one chain of several): as above

In the case of `CC(C)C[C@H](NC(=O)[C@H](CCC(=O)O)NC(=O)[C@H](Cc1c[nH]cn1)NC(=O)[C@H](CC(C)C)NC(=O)[C@H](CCC(=O)O)NC(=O)[C@H](C)NC(=O)[C@H](CO)NC(=O)[C@H](CC(C)C)NC(=O)[C@H](CCCNC(=N)N)NC(=O)CNC(=O)[C@H](CC(C)C)NC(=O)[C@@H](NC(=O)[C@H](C)NC(=O)[C@@H](NC(=O)[C@H](CO)NC(=O)[C@@H](NC(=O)[C@H](CCC(=O)O)NC(=O)[C@H](CO)NC(=O)[C@H](C)N)C(C)C)[C@@H](C)O)C(C)C)C(=O)N[C@@H](C)C(=O)N[C@H](C(=O)N[C@@H](CC(C)C)C(=O)N1CCC[C@H]1C(=O)N[C@@H](CCCNC(=N)N)C(=O)N[C@H](C(=O)N[C@@H](CCC(=O)O)C(=O)N[C@H](C(=O)NCC(=O)N[C@@H](CO)C(=O)NCC(=O)N[C@@H](CO)C(=O)N1CCC[C@H]1C(N)=O)[C@@H](C)O)[C@@H](C)O)[C@@H](C)O` [86bb, H—ASEVSTAVLGRLSAELHELATLPRTETGSGSP—NH2] (H-ASEVSTAVLGRLSAELHELATLPRTETGSGSP-NH2), the half-maximal inhibitory concentration (IC50) in assay [1] turned out to be 0.982 nM. Besides, the figures for the concentration giving a half-maximal response (EC50) in assay [2] and in assay [3] were 0.007 nM and 2 pM, respectively.
Consider `CC(C)C[C@H](NC(=O)[C@H](CCC(=O)O)NC(=O)[C@H](Cc1c[nH]cn1)NC(=O)[C@H](CC(C)C)NC(=O)[C@H](CCC(=O)O)NC(=O)[C@H](C)NC(=O)[C@H](CO)NC(=O)[C@H](CC(C)C)NC(=O)[C@H](CCCNC(=N)N)NC(=O)CNC(=O)[C@H](CC(C)C)NC(=O)[C@@H](NC(=O)[C@H](C)NC(=O)[C@@H](NC(=O)[C@@H](NC(=O)[C@H](CC(C)C)NC(=O)[C@H](CCC(=O)O)NC(=O)[C@H](CO)NC(=O)[C@H](C)N)[C@@H](C)O)[C@@H](C)O)C(C)C)C(=O)N[C@@H](C)C(=O)N[C@H](C(=O)N[C@@H](CC(C)C)C(=O)N1CCC[C@H]1C(=O)N[C@@H](CCCNC(=N)N)C(=O)N[C@H](C(=O)N[C@@H](CCC(=O)O)C(=O)N[C@H](C(=O)NCC(=O)N[C@H](C(=O)NCC(=O)N[C@H](C(=O)N1CCC[C@H]1C(N)=O)[C@@H](C)O)[C@@H](C)O)[C@@H](C)O)[C@@H](C)O)[C@@H](C)O` [95bb, H—ASELTTAVLGRLSAELHELATLPRTETGTGTP—NH2] (H-ASELTTAVLGRLSAELHELATLPRTETGTGTP-NH2), for which the IC50 in assay [1] was 20.2 nM. Further, the 50% effective concentration (EC50) was 0.046 nM in assay [2] and 9 pM in assay [3].
Regarding `CC(C)C[C@H](NC(=O)CNC(=O)[C@H](CO)NC(=O)[C@@H](N)CC(C)C)C(=O)N[C@@H](CO)C(=O)N[C@H](C(=O)N[C@@H](C)C(=O)N[C@H](C(=O)N[C@@H](CC(C)C)C(=O)NCC(=O)N[C@@H](CCCNC(=N)N)C(=O)N[C@@H](CC(C)C)C(=O)N[C@@H](CO)C(=O)N[C@@H](CCC(N)=O)C(=O)N[C@@H](CCC(=O)O)C(=O)N[C@@H](CC(C)C)C(=O)N[C@@H](Cc1c[nH]cn1)C(=O)N[C@@H](CCC(=O)O)C(=O)N[C@@H](CC(C)C)C(=O)N[C@@H](CCC(N)=O)C(=O)N[C@H](C(=O)N[C@@H](Cc1ccc(O)cc1)C(=O)N1CCC[C@H]1C(=O)N[C@@H](CCCNC(=N)N)C(=O)N[C@H](C(=O)N[C@@H](CCC(=O)O)C(=O)N[C@H](C(=O)NCC(=O)N[C@@H](CO)C(=O)N[C@@H](CCC(N)=O)C(=O)N[C@H](C(=O)N[C@@H](Cc1ccc(O)cc1)C(N)=O)[C@@H](C)O)[C@@H](C)O)[C@@H](C)O)[C@@H](C)O)C(C)C)[C@@H](C)O` [127bb, H—LSGLSTAVLGRLSQELHELQTYPRTETGSQTY—NH2] (H-LSGLSTAVLGRLSQELHELQTYPRTETGSQTY-NH2), the IC50 in assay [1] came out at 1.18 nM. In addition, the EC50 came out at 0.011 nM in assay [2] and 6 pM in assay [3].
On to `CC(C)C[C@H](NC(=O)[C@H](CCCNC(=N)N)NC(=O)CNC(=O)[C@H](CC(C)C)NC(=O)[C@@H](NC(=O)[C@H](C)NC(=O)[C@@H](NC(=O)[C@@H](NC(=O)[C@H](CC(C)C)NC(=O)[C@H](CCC(=O)O)NC(=O)[C@H](CO)NC(=O)[C@H](C)N)[C@@H](C)O)[C@@H](C)O)C(C)C)C(=O)N[C@@H](CCC(=O)O)C(=O)N[C@@H](C)C(=O)N[C@@H](CCC(=O)O)C(=O)N[C@@H](CC(C)C)C(=O)N[C@@H](Cc1c[nH]cn1)C(=O)N[C@@H](CCC(=O)O)C(=O)N[C@@H](CC(C)C)C(=O)N[C@H](C(=O)N[C@H](C(=O)N[C@@H](CC(C)C)C(=O)N1CCC[C@H]1C(=O)N[C@@H](CCCNC(=N)N)C(=O)N[C@H](C(=O)N[C@@H](CCC(=O)O)C(=O)N[C@H](C(=O)NCC(=O)N[C@H](C(=O)NCC(=O)N[C@H](C(=O)N1CCC[C@H]1C(N)=O)[C@@H](C)O)[C@@H](C)O)[C@@H](C)O)[C@@H](C)O)[C@@H](C)O)[C@@H](C)O` [106bb, H—ASELTTAVLGRLEAELHELTTLPRTETGTGTP—NH2] (H-ASELTTAVLGRLEAELHELTTLPRTETGTGTP-NH2), for which the IC50 in assay [1] worked out at 71.4 nM.
As for `CC(C)C[C@H](NC(=O)[C@H](C)NC(=O)[C@H](C)NC(=O)[C@@H](NC(=O)[C@H](CO)NC(=O)[C@H](CC(C)C)NC(=O)[C@H](CCC(=O)O)NC(=O)[C@H](CO)NC(=O)[C@H](C)N)[C@@H](C)O)C(=O)NCC(=O)N[C@@H](Cc1c[nH]cn1)C(=O)N[C@@H](CC(C)C)C(=O)N[C@@H](CO)C(=O)N[C@@H](C)C(=O)N[C@@H](CCC(=O)O)C(=O)N[C@@H](CC(C)C)C(=O)N[C@@H](Cc1c[nH]cn1)C(=O)N[C@@H](CCC(=O)O)C(=O)N[C@@H](CC(C)C)C(=O)N[C@@H](C)C(=O)N[C@H](C(=O)N[C@@H](CC(C)C)C(=O)N1CCC[C@H]1C(=O)N[C@@H](CCCNC(=N)N)C(=O)N[C@H](C(=O)N[C@@H](CCC(=O)O)C(=O)N[C@H](C(=O)NCC(=O)N[C@@H](CO)C(=O)NCC(=O)N[C@@H](CO)C(=O)N1CCC[C@H]1C(N)=O)[C@@H](C)O)[C@@H](C)O)[C@@H](C)O` [72bb, H—ASELSTAALGHLSAELHELATLPRTETGSGSP—NH2] (H-ASELSTAALGHLSAELHELATLPRTETGSGSP-NH2), in assay [1], the half-maximal inhibitory concentration (IC50) came to 5.1 nM. The results for the EC50 in assay [2] and in assay [3] were 0.014 nM and 3 pM, respectively.
